Reference: patent US9623014B2 (Entasis Therapeutics Limited, priority 2012, dated 2017)

Tests used:
Escherichia coli = assay: MIC, broth microdilution (CLSI); assay type: cell-based; details: compound alone
Protocol: (§1) Minimum Inhibitory Concentrations (MICs) were determined by the broth microdilution method in accordance with the Clinical and Laboratory Standards Institute (CLSI) guidelines. Clinical Laboratory Standards Institute: Methods for Dilution Antimicrobial Susceptability Tests for Bacteria That Grow Aerobically (8th Ed. (2009)) M07-A8. In brief, organism suspensions were adjusted to a 0.5 McFarland standard and further diluted to yield a final inoculum between 3×10^5 and 7×10^5 colony-forming units (CFU)/mL. Bacterial inocula were made in sterile, cation adjusted Mueller-Hinton Broth (Beckton Dickinson) for either Escherichia coli, Klebsiella pneumoniae, or Pseudomonas aeruginosa. Haemophilus influenzae bacterial inocula were made in sterile, cation adjusted Mueller-Hinton Broth (Beckton Dickinson) containing 0.5% yeast extract (Beckton Dickinson) plus 15 μg/ml Bovine Hematin (Sigma) and 15 μg/ml β-nicotinamide adenine dinucleotide (Sigma). Bacterial inocula were made in sterile, cation adjusted Mueller-Hinton Broth (Beckton Dickinson) for Staphylococcus aureus or sterile, cation adjusted Mueller-Hinton Broth containing 2.5% lysed horse blood (Hema Resource & Supply Inc.) for Streptococcus pneumoniae and Streptococcus pyogenes. An inoculum volume of 100 uL was added to wells (using a Tecan EVO robot) containing 2 uL of DMSO containing 2-fold serial dilutions of drug. […] All inoculated microdilution trays were incubated in ambient air at 35° C. for 18-24 hours. Following incubation, the lowest concentration of the drug that prevented visible growth as read at OD600 nm was recorded as the MIC. Performance of the assay was monitored by the use of laboratory quality-control strains and commercially available control compounds with defined MIC spectrums, in accordance with CLSI guidelines.

Haemophilus influenzae = assay: MIC, broth microdilution (CLSI); assay type: cell-based; details: compound alone
Protocol: as §1

Klebsiella pneumoniae = assay: MIC, broth microdilution (CLSI); assay type: cell-based; details: compound alone
Protocol: as §1

Pseudomonas aeruginosa = assay: MIC, broth microdilution (CLSI); assay type: cell-based; details: compound alone
Protocol: as §1

Streptococcus pneumoniae = assay: MIC, broth microdilution (CLSI); assay type: cell-based; details: compound alone
Protocol: as §1

Streptococcus pyogenes = assay: MIC, broth microdilution (CLSI); assay type: cell-based; details: compound alone
Protocol: as §1

S. aureus (MRSA) = assay: MIC, broth microdilution (CLSI); assay type: cell-based, Staphylococcus aureus; details: compound alone
Protocol: as §1

S. aureus (MSSA) = assay: MIC, broth microdilution (CLSI); assay type: cell-based, Staphylococcus aureus; details: compound alone
Protocol: as §1

[1] = test system: Klebsiella pneumoniae KPC2; assay: MIC alone against β-lactamase producing strain; assay type: cell-based; details: substance alone
Protocol: as §1

[2] = test system: Pseudomonas aeruginosa PER-1, OXA-10; assay: MIC alone against β-lactamase producing strain; assay type: cell-based; details: substance alone
Protocol: as §1

[3] = test system: Klebsiella pneumoniae KPC2; assay: Synergy with β-lactams (MIC of β-lactam at fixed inhibitor concentration); assay type: cell-based; details: MIC of ceftazidime + inhibitor at fixed 4 ug/ml
Protocol: (§2) Synergy with β-lactams was assessed against several organisms producing a variety of β-lactamases belonging to different classes. Bush & Jacoby, Updated Functional Classification of β-Lactamases, Antimicrobial Agents and Chemotherapy, 54:969-76 (2010). In the assays, growth inhibitory activity (MIC) was measured using either two-fold dilutions of the partner β-lactam at a fixed concentration of compounds of formula (I). Compounds were prepared in DMSO, and MIC determinations using the compound of formula (I)/β-lactam combinations were done according to the CLSI guidelines. Clinical Laboratory Standards Institute: Methods for Dilution Antimicrobial Susceptability Tests for Bacteria That Grow Aerobically (8th Ed. (2009)) M07-A8. Synergy was defined as a four-fold or more reduction in the MIC of the β-lactam in the presence of the compound of formula (I), compared to the β-lactam alone.

[4] = test system: Pseudomonas aeruginosa PER-1, OXA-10; assay: as above; assay type: cell-based; details: MIC of ceftazidime + inhibitor at fixed 4 ug/ml
Protocol: as §2

SMILES: CC(C)C1=C[C@@H]2CN(C(=O)N2OS(=O)(=O)[O-])[C@@H]1C(N)=O.[Na+] [Example 11]
- MIC E. coli (Escherichia coli): >200 µg/mL
- MIC H. influenzae (Haemophilus influenzae): >200 µg/mL
- MIC K. pneumon. (Klebsiella pneumoniae): >200 µg/mL
- MIC P. aeruginosa (Pseudomonas aeruginosa): >200 µg/mL
- MIC S. pneumon. (Streptococcus pneumoniae): 25 µg/mL
- MIC S. pyogenes (Streptococcus pyogenes): 25 µg/mL
- MIC S. aureus (MRSA) (S. aureus (MRSA)): >200 µg/mL
- MIC S. aureus (MSSA) (S. aureus (MSSA)): 100 µg/mL
- MIC Klebsiella pneumoniae KPC2 [1]: >16 µg/mL
- MIC Pseudomonas aeruginosa PER-1, OXA-10 [2]: >16 µg/mL
- MIC Klebsiella pneumoniae KPC2 [3]: 1 µM
- MIC Pseudomonas aeruginosa PER-1, OXA-10 [4]: 16 µM
